According to PubChem BioAssay AID270 (DTP/NCI, 2004):
Where “and” joins values, the source holds several entries; their conditions need not be identical. Equal entries are not always repeated. Inconclusive results are not listed.

Test system: BDF1 mice, s.c. Lewis lung carcinoma, T/C %
Assay: NCI In Vivo Anticancer Drug Screen. Data for tumor model Lewis Lung Carcinoma (subcutaneous) in B6D2F1 (BDF1) mice
In short: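 The value reflects a ratio in which the treated cohort's survival time or tumour size is compared against mice receiving only vehicle.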

[1] = endpoint: mean tumor weight, dose: 200.0 mg/kg/injection, schedule: Q01DX011 (ip), vehicle: other, higher = larger tumour

CCC1CCC(NC(=O)N(CCF)N=O)CC1 (configuration not stated)
T/C (endpoint: median tumor weight (est.), dose: 50.0 mg/kg/injection, schedule: Q01DX001 (ip), vehicle: saline with Tween-80, higher = larger tumour): 62 % of control

CC1CCC2(NC1)OC1CC3C4CCC5CC(OC6OC(CO)C(OC7OC(CO)C(O)C(OC8OCC(O)C(O)C8O)C7OC7OC(CO)C(O)C(O)C7O)C(O)C6O)CCC5(C)C4CCC3(C)C1C2C (configuration not stated)
T/C (endpoint: mean tumor weight, dose: 5.0 mg/kg/injection, schedule: Q01DX011 (sc), vehicle: steriod suspending solution, higher = larger tumour): 104 % of control | T/C (endpoint: mean tumor weight, dose: 10.0 mg/kg/injection, schedule: Q01DX011 (sc), vehicle: steriod suspending solution, higher = larger tumour): 77 % of control | T/C (endpoint: mean tumor weight, dose: 20.0 mg/kg/injection, schedule: Q01DX011 (sc), vehicle: steriod suspending solution, higher = larger tumour): 85 % of control | T/C (endpoint: mean tumor weight, dose: 40.0 mg/kg/injection, schedule: Q01DX011 (sc), vehicle: steriod suspending solution, higher = larger tumour): 94 % of control

C[N+](C)(C)c1ncnc2nc[nH]c12
T/C (endpoint: mean tumor weight, dose: 15.0 mg/kg/injection, schedule: Q01DX011 (ip), vehicle: saline, higher = larger tumour): 87 % of control | T/C (endpoint: mean tumor weight, dose: 30.0 mg/kg/injection, schedule: Q01DX011 (ip), vehicle: saline, higher = larger tumour): 100 % of control | T/C (endpoint: mean tumor weight, dose: 60.0 mg/kg/injection, schedule: Q01DX011 (ip), vehicle: saline, higher = larger tumour): 55 % of control | T/C (endpoint: mean tumor weight, dose: 120.0 mg/kg/injection, schedule: Q01DX011 (ip), vehicle: saline, higher = larger tumour): 59 % of control

CC(=O)OC/C=C(C)/C=C/C=C(C)/C=C/C1=C(C)CCCC1(C)C
T/C (endpoint: median survival time, dose: 200.0 mg/kg/injection, schedule: Q01DX005 (ip), vehicle: saline with Tween-80, higher = longer survival): 100 % of control

OCCc1ccccc1
T/C (endpoint: mean tumor weight, dose: 62.5 mg/kg/injection, schedule: Q01DX011 (ip), vehicle: saline, higher = larger tumour): 95 % of control | T/C (endpoint: mean tumor weight, dose: 125.0 mg/kg/injection, schedule: Q01DX011 (ip), vehicle: saline, higher = larger tumour): 107 % of control | T/C (endpoint: mean tumor weight, dose: 250.0 mg/kg/injection, schedule: Q01DX011 (ip), vehicle: saline, higher = larger tumour): 75 % of control

NC(=S)c1cn(C2OC(CO)C(O)C2O)c2ncnc(N)c12 (configuration not stated)
T/C (endpoint: median survival time, dose: 0.31 mg/kg/injection, schedule: Q01DX009 (ip), vehicle: saline with Tween-80, higher = longer survival): 111 % of control | T/C (endpoint: median survival time, dose: 0.62 mg/kg/injection, schedule: Q01DX009 (ip), vehicle: saline with Tween-80, higher = longer survival): 88 % of control | T/C (endpoint: median survival time, dose: 2.5 mg/kg/injection, schedule: Q01DX009 (ip), vehicle: saline with Tween-80, higher = longer survival): 94 % of control and 101 % of control | T/C (endpoint: median survival time, dose: 5.0 mg/kg/injection, schedule: Q01DX009 (ip), vehicle: saline with Tween-80, higher = longer survival): 101 % of control

CC[CH2][Pb]([CH2]CC)([CH2]CC)[O]C(=O)C(Cl)(Cl)Cl
T/C (endpoint: median survival time, dose: 0.19 mg/kg/injection, schedule: Q01DX009 (ip), vehicle: saline with Tween-80, higher = longer survival): 101 % of control | T/C (endpoint: median survival time, dose: 0.38 mg/kg/injection, schedule: Q01DX009 (ip), vehicle: saline with Tween-80, higher = longer survival): 94 % of control | T/C (endpoint: median survival time, dose: 0.75 mg/kg/injection, schedule: Q01DX009 (ip), vehicle: saline with Tween-80, higher = longer survival): 90 % of control | T/C (endpoint: median survival time, dose: 1.5 mg/kg/injection, schedule: Q01DX009 (ip), vehicle: saline with Tween-80, higher = longer survival): 103 % of control | T/C (endpoint: median survival time, dose: 3.0 mg/kg/injection, schedule: Q01DX009 (ip), vehicle: saline with Tween-80, higher = longer survival): 106 % of control | T/C (endpoint: median survival time, dose: 6.0 mg/kg/injection, schedule: Q01DX009 (ip), vehicle: saline with Tween-80, higher = longer survival): 106 % of control

O=NN(CCCl)C(=O)Nc1ccc2c3c(cccc13)-c1ccccc1-2
T/C (endpoint: median survival time, dose: 50.0 mg/kg/injection, schedule: Q01DX009 (ip), vehicle: Klucel (hydroxypropylcellulose) (HPC), higher = longer survival): 100 % of control | T/C (endpoint: median survival time, dose: 100.0 mg/kg/injection, schedule: Q01DX009 (ip), vehicle: Klucel (hydroxypropylcellulose) (HPC), higher = longer survival): 97 % of control | T/C (endpoint: median survival time, dose: 200.0 mg/kg/injection, schedule: Q01DX009 (ip), vehicle: Klucel (hydroxypropylcellulose) (HPC), higher = longer survival): 88 % of control

CCN(C=O)CC
T/C (endpoint: mean tumor weight, dose: 88.0 mg/kg/injection, schedule: Q01DX011 (ip), vehicle: other, higher = larger tumour): 89 % of control | T/C (endpoint: mean tumor weight, dose: 133.0 mg/kg/injection, schedule: Q01DX011 (ip), vehicle: other, higher = larger tumour): 102 % of control | T/C [1]: 68 % of control | T/C (endpoint: mean tumor weight, dose: 300.0 mg/kg/injection, schedule: Q01DX011 (ip), vehicle: other, higher = larger tumour): 87 % of control | T/C (endpoint: mean tumor weight, dose: 300.0 mg/kg/injection, schedule: Q01DX011 (ip), vehicle: saline, higher = larger tumour): 65 % of control | T/C (endpoint: mean tumor weight, dose: 600.0 mg/kg/injection, schedule: Q01DX011 (ip), vehicle: saline, higher = larger tumour): 62 % of control | T/C (endpoint: mean tumor weight, dose: 900.0 mg/kg/injection, schedule: Q01DX011 (ip), vehicle: saline, higher = larger tumour): 90 % of control

OCC(Br)CBr (configuration not stated)
T/C (endpoint: mean tumor weight, dose: 37.0 mg/kg/injection, schedule: Q01DX011 (ip), vehicle: other, higher = larger tumour): 97 % of control | T/C (endpoint: mean tumor weight, dose: 55.0 mg/kg/injection, schedule: Q01DX011 (ip), vehicle: other, higher = larger tumour): 66 % of control

N=C(N)NC(=N)Nc1ccc(NC(=O)Nc2ccc(Nc3c4ccccc4nc4cc([N+](=O)[O-])ccc34)cc2)cc1
T/C (endpoint: median survival time, dose: 1.56 mg/kg/injection, schedule: Q01DX009 (ip), vehicle: water, higher = longer survival): 111 % of control | T/C (endpoint: median survival time, dose: 6.25 mg/kg/injection, schedule: Q01DX009 (ip), vehicle: water, higher = longer survival): 108 % of control | T/C (endpoint: median survival time, dose: 12.5 mg/kg/injection, schedule: Q01DX009 (ip), vehicle: water, higher = longer survival): 112 % of control | T/C (endpoint: median survival time, dose: 25.0 mg/kg/injection, schedule: Q01DX009 (ip), vehicle: water, higher = longer survival): 103 % of control | T/C (endpoint: median survival time, dose: 50.0 mg/kg/injection, schedule: Q01DX009 (ip), vehicle: water, higher = longer survival): 112 % of control

CC1CN(C(=O)CCl)c2ccccc2N1C(=O)CCl (configuration not stated)
T/C (endpoint: mean tumor weight, dose: 1.0 mg/kg/injection, schedule: Q01DX011 (ip), vehicle: carboxymethylcellulose (CMC), higher = larger tumour): 121 % of control | T/C (endpoint: mean tumor weight, dose: 2.0 mg/kg/injection, schedule: Q01DX011 (ip), vehicle: carboxymethylcellulose (CMC), higher = larger tumour): 94 % of control | T/C (endpoint: mean tumor weight, dose: 4.0 mg/kg/injection, schedule: Q01DX011 (ip), vehicle: carboxymethylcellulose (CMC), higher = larger tumour): 75 % of control | T/C (endpoint: mean tumor weight, dose: 8.0 mg/kg/injection, schedule: Q01DX011 (ip), vehicle: carboxymethylcellulose (CMC), higher = larger tumour): 124 % of control

C=C1C(=O)OC2CC(C)C3C4OC4C(O)C3(C)C(O)C12 (configuration not stated)
T/C (endpoint: median survival time, dose: 9.38 mg/kg/injection, schedule: Q01DX009 (ip), vehicle: saline with Tween-80, higher = longer survival): 99 % of control | T/C (endpoint: median survival time, dose: 18.75 mg/kg/injection, schedule: Q01DX009 (ip), vehicle: saline with Tween-80, higher = longer survival): 96 % of control | T/C (endpoint: median survival time, dose: 37.5 mg/kg/injection, schedule: Q01DX009 (ip), vehicle: saline with Tween-80, higher = longer survival): 101 % of control

COc1cccc(/C=N/C(=S)NC2(C)C3CCC(C3)C2(C)C)c1O (configuration not stated)
T/C (endpoint: median survival time, dose: 6.25 mg/kg/injection, schedule: Q01DX009 (ip), vehicle: olive oil, sesame oil, peanut oil, higher = longer survival): 98 % of control | T/C (endpoint: median survival time, dose: 12.5 mg/kg/injection, schedule: Q01DX009 (ip), vehicle: olive oil, sesame oil, peanut oil, higher = longer survival): 94 % of control | T/C (endpoint: median survival time, dose: 100.0 mg/kg/injection, schedule: Q01DX009 (ip), vehicle: olive oil, sesame oil, peanut oil, higher = longer survival): 90 % of control

CO[C@H]1C[C@H](O[C@H]2CC[C@]3(C=O)[C@H]4CC[C@]5(C)[C@@H](C6=CC(=O)OC6)CC[C@]5(O)[C@@H]4CC[C@]3(O)C2)O[C@H](C)[C@H]1O
T/C (endpoint: mean tumor weight, dose: 2.6 mg/kg/injection, schedule: Q01DX011 (sc), vehicle: steriod suspending solution, higher = larger tumour): 59 % of control | T/C (endpoint: mean tumor weight, dose: 4.0 mg/kg/injection, schedule: Q01DX011 (sc), vehicle: steriod suspending solution, higher = larger tumour): 78 % of control

CC(C)Sc1nc(N)nc2nc[nH]c12
T/C (endpoint: mean tumor weight, dose: 12.5 mg/kg/injection, schedule: Q01DX011 (ip), vehicle: other, higher = larger tumour): 75 % of control | T/C (endpoint: mean tumor weight, dose: 25.0 mg/kg/injection, schedule: Q01DX011 (ip), vehicle: other, higher = larger tumour): 95 % of control | T/C (endpoint: mean tumor weight, dose: 50.0 mg/kg/injection, schedule: Q01DX011 (ip), vehicle: other, higher = larger tumour): 67 % of control | T/C (endpoint: mean tumor weight, dose: 100.0 mg/kg/injection, schedule: Q01DX011 (ip), vehicle: other, higher = larger tumour): 48 % of control and 62 % of control | T/C [1]: 52 % of control | T/C (endpoint: mean tumor weight, dose: 400.0 mg/kg/injection, schedule: Q01DX011 (ip), vehicle: other, higher = larger tumour): 30 % of control

C[CH2][Pb]([CH2]C)([CH2]C)[O]C(=O)COC
T/C (endpoint: median survival time, dose: 1.56 mg/kg/injection, schedule: Q01DX009 (ip), vehicle: Klucel (hydroxypropylcellulose) (HPC), higher = longer survival): 92 % of control | T/C (endpoint: median survival time, dose: 3.13 mg/kg/injection, schedule: Q01DX009 (ip), vehicle: Klucel (hydroxypropylcellulose) (HPC), higher = longer survival): 96 % of control

C/C(=C\c1ccc(C)cc1)[N+](=O)[O-]
T/C (endpoint: median survival time, dose: 25.0 mg/kg/injection, schedule: Q01DX009 (ip), vehicle: saline with Tween-80, higher = longer survival): 96 % of control | T/C (endpoint: median survival time, dose: 50.0 mg/kg/injection, schedule: Q01DX009 (ip), vehicle: saline with Tween-80, higher = longer survival): 95 % of control | T/C (endpoint: median survival time, dose: 100.0 mg/kg/injection, schedule: Q01DX009 (ip), vehicle: saline with Tween-80, higher = longer survival): 94 % of control

Cn1c(O)c(N=NC(N)=S)c2ccccc21
T/C (endpoint: mean tumor weight, dose: 15.0 mg/kg/injection, schedule: Q01DX011 (ip), vehicle: carboxymethylcellulose (CMC), higher = larger tumour): 70 % of control | T/C (endpoint: mean tumor weight, dose: 120.0 mg/kg/injection, schedule: Q01DX011 (ip), vehicle: carboxymethylcellulose (CMC), higher = larger tumour): 77 % of control and 82 % of control | T/C (endpoint: mean tumor weight, dose: 360.0 mg/kg/injection, schedule: Q01DX011 (ip), vehicle: carboxymethylcellulose (CMC), higher = larger tumour): 57 % of control | T/C (endpoint: mean tumor weight, dose: 500.0 mg/kg/injection, schedule: Q01DX011 (ip), vehicle: carboxymethylcellulose (CMC), higher = larger tumour): 52 % of control
